Data from ChEMBL document CHEMBL1201862, “PubChem BioAssay data set” (2004).
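Step 1: Grow cells in 96-well plates. Step 2: Expose to compound for 48 hours at 5 concentrations. Step 3: Interpolate endpoints linearly; if unreached, use highest concentration. GI50 is the concentration that inhibits growth by half.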 Active and inactive are the calls of the source. Cut-off read from the data, not from the text of the source: active = GI50 up to about 1.1 µM and inactive = higher.

Key:
Test in all cases: growth of human tumour cells (NCI), 48 h
HOP-62 = test system: HOP-62
SN12C = test system: SN12C
SK-MEL-5 = test system: SK-MEL-5
A549 = test system: A549
A498 = test system: A498
UACC-62 = test system: UACC-62
COLO 205 = test system: COLO 205
SNB-75 = test system: SNB-75
HCC 2998 = test system: HCC 2998
SK-MEL-28 = test system: SK-MEL-28
MOLT-4 = test system: MOLT-4
SW-620 = test system: SW-620
NCI-H23 = test system: NCI-H23
SK-OV-3 = test system: SK-OV-3
NCI-H460 = test system: NCI-H460
RPMI-8226 = test system: RPMI-8226
RXF 393 = test system: RXF 393

Measured: GI50

Oc1ncnc2c1sc(=S)n2-c1ccccc1
inactive: HOP-62 > 100 µM | SN12C > 100 µM | SK-MEL-5 > 100 µM | A549 > 100 µM | A498 94.8 µM | UACC-62 > 100 µM | COLO 205 > 100 µM | SNB-75 > 100 µM | HCC 2998 > 100 µM | SK-MEL-28 > 100 µM | MOLT-4 > 100 µM | SW-620 > 100 µM | NCI-H23 > 100 µM | SK-OV-3 > 100 µM | NCI-H460 > 100 µM

CN(C)CCCNc1ccc2ncn3c4ccccc4c(=O)c1c23
inactive: HOP-62 33.6 µM | SN12C 11.5 µM | A498 > 10 µM | UACC-62 12.8 µM | COLO 205 2.49 µM | RPMI-8226 4.71 µM | SNB-75 10.5 µM | SK-MEL-28 31.6 µM | MOLT-4 2.91 µM | SW-620 4.71 µM | NCI-H23 12.3 µM | SK-OV-3 8.59 µM | NCI-H460 3.43 µM

CC(C)(C)/N=C\N1CCC(C(c2ccccc2)c2ccccc2)CC1
inactive: HOP-62 > 100 µM | SN12C 78.3 µM | SK-MEL-5 67 µM | A549 98.4 µM | A498 38.3 µM | UACC-62 35.7 µM | COLO 205 19.1 µM | RPMI-8226 45.2 µM | SNB-75 21.9 µM | SK-MEL-28 43.4 µM | SW-620 > 100 µM | NCI-H23 > 100 µM | RXF 393 22.9 µM | NCI-H460 87.7 µM

O=C(c1ccccc1)c1cn(/N=C\c2ccccc2)c(=O)nc1-c1ccccc1
inactive: HOP-62 > 100 µM | SN12C > 100 µM | SK-MEL-5 > 100 µM | A549 > 100 µM | A498 > 100 µM | UACC-62 > 100 µM | COLO 205 > 100 µM | SNB-75 > 100 µM | HCC 2998 > 100 µM | SK-MEL-28 > 100 µM | MOLT-4 > 100 µM | SW-620 > 100 µM | NCI-H23 > 100 µM | RXF 393 > 100 µM | SK-OV-3 > 100 µM | NCI-H460 > 100 µM

CCn1c(SC(C)C(=O)c2c(C)n(C)n(-c3ccccc3)c2=O)nc2ccccc2c1=O (stereo not drawn)
inactive: HOP-62 > 100 µM | SN12C > 100 µM | SK-MEL-5 > 100 µM | A549 > 100 µM | A498 > 100 µM | UACC-62 > 100 µM | COLO 205 > 100 µM | RPMI-8226 95.1 µM | SNB-75 > 100 µM | SK-MEL-28 > 100 µM | MOLT-4 > 100 µM | NCI-H23 > 100 µM | SK-OV-3 > 100 µM | NCI-H460 > 100 µM

C=C1CCC2C(C)(CO)C(O)CCC2(C)C1C/C=C1/CCOC1=O (stereo not drawn)
inactive: HOP-62 > 100 µM | SN12C > 100 µM | SK-MEL-5 > 100 µM | A549 > 100 µM | A498 > 100 µM | UACC-62 > 100 µM | COLO 205 > 100 µM | RPMI-8226 > 100 µM | SNB-75 > 100 µM | HCC 2998 > 100 µM | MOLT-4 > 100 µM | SW-620 > 100 µM | NCI-H23 > 100 µM | SK-OV-3 > 100 µM | NCI-H460 > 100 µM

CC1(C)CC2(S(=O)(=O)c3ccccc3)ON1CC2S(=O)(=O)c1ccccc1 (stereo not drawn)
inactive: HOP-62 > 100 µM | SN12C > 100 µM | A549 > 100 µM | UACC-62 91.2 µM | COLO 205 > 100 µM | RPMI-8226 35.7 µM | SNB-75 > 100 µM | HCC 2998 > 100 µM | SK-MEL-28 86.1 µM | MOLT-4 30.8 µM | SW-620 > 100 µM | NCI-H23 88.5 µM | RXF 393 48.4 µM | SK-OV-3 > 100 µM | NCI-H460 > 100 µM

CCCCCCCCCCCCCCC(C)CCC(=O)O (stereo not drawn)
inactive: HOP-62 > 100 µM | SN12C > 100 µM | SK-MEL-5 > 100 µM | A549 > 100 µM | A498 > 100 µM | UACC-62 78.9 µM | COLO 205 44 µM | SNB-75 > 100 µM | SK-MEL-28 > 100 µM | SW-620 > 100 µM | NCI-H23 > 100 µM | RXF 393 > 100 µM | NCI-H460 31.9 µM

COC(=O)C1Cc2c(n(C)c3ccccc23)C(c2ccccc2)N1 (stereo not drawn)
inactive: SN12C > 100 µM | SK-MEL-5 21.1 µM | A549 > 100 µM | A498 48.4 µM | UACC-62 62.8 µM | COLO 205 23 µM | RPMI-8226 63.7 µM | SNB-75 > 100 µM | HCC 2998 49.4 µM | SK-MEL-28 > 100 µM | MOLT-4 29.6 µM | SW-620 > 100 µM | NCI-H23 > 100 µM | SK-OV-3 > 100 µM | NCI-H460 60.5 µM

CCCNc1ncnc2c1cnn2C
inactive: HOP-62 > 100 µM | SN12C > 100 µM | SK-MEL-5 > 100 µM | A549 > 100 µM | A498 > 100 µM | UACC-62 > 100 µM | COLO 205 > 100 µM | RPMI-8226 > 100 µM | SNB-75 51.3 µM | HCC 2998 > 100 µM | SK-MEL-28 > 100 µM | MOLT-4 > 100 µM | SW-620 > 100 µM | NCI-H23 > 100 µM | SK-OV-3 > 100 µM | NCI-H460 > 100 µM

O=c1c2ccccc2c(=O)c2c1cc(Cl)c1[nH]c3c([nH]c12)c(Cl)cc1c(=O)c2ccccc2c(=O)c13
inactive: HOP-62 > 100 µM | SN12C > 100 µM | A549 > 100 µM | A498 > 100 µM | UACC-62 > 100 µM | COLO 205 > 100 µM | RPMI-8226 > 100 µM | SNB-75 > 100 µM | HCC 2998 > 100 µM | SK-MEL-28 > 100 µM | MOLT-4 > 100 µM | SW-620 > 100 µM | NCI-H23 > 100 µM | RXF 393 > 100 µM | SK-OV-3 > 100 µM | NCI-H460 > 100 µM

CC1C[C@H](C)CC(C(O)CC2CC(=O)N(Cc3ccccc3)C(=O)C2)C1O (stereo partly drawn)
inactive: HOP-62 > 100 µM | SN12C > 100 µM | A549 > 100 µM | A498 > 100 µM | UACC-62 > 100 µM | COLO 205 > 100 µM | RPMI-8226 > 100 µM | SNB-75 > 100 µM | HCC 2998 > 100 µM | SK-MEL-28 > 100 µM | MOLT-4 > 100 µM | SW-620 > 100 µM | NCI-H23 2.65 µM | RXF 393 > 100 µM | SK-OV-3 > 100 µM | NCI-H460 > 100 µM

O=C(O)CN(c1ccccc1)S(=O)(=O)c1cccc([N+](=O)[O-])c1
inactive: SN12C > 100 µM | SK-MEL-5 > 100 µM | A549 > 100 µM | A498 > 100 µM | UACC-62 > 100 µM | COLO 205 > 100 µM | RPMI-8226 > 100 µM | SNB-75 > 100 µM | SK-MEL-28 > 100 µM | MOLT-4 > 100 µM | SW-620 > 100 µM | NCI-H23 > 100 µM | RXF 393 > 100 µM | SK-OV-3 > 100 µM | NCI-H460 > 100 µM
